Usually IC50 stands for the concentration at which inhibition is half-maximal.

The test system of assay [1] is NCI-H358 cells express KRAS G12C. Nature of the assay: Cell growth inhibition assay (CCK-8). The note with it: Homo sapiens, 144 h; NCI-H358, 6 days incubation. The class given is cell-based. The method, then:
3. Cell Growth inhibition assay
NCI-H358 cells express KRAS G12C were cultured in RPMI 1640 medium (Gibco) containing 10% fetal bovine serum (Gibco). Cells in culture medium were plated in 96-well plates at a concentration of 3000 cells/well ([…]) and allowed to attach overnight. The next day, compounds were diluted in culture medium and added to the plates. After 6 days incubation in a 37° C./5% CO2 cell incubator, the medium was removed, then 100 μL of 1×CCK-8 (MCE) in culture medium was added in each well. The plates were incubated 1.5-2 hours in a 37° C./5% CO2 cell incubator. OD450 signals were read on Tecan Spark multimode microplate reader and analyzed using a 4-parameter logistic model to calculate IC50 values.

Assay [2] relates to Phospho-ERK1/2(THR202/TYR204) in NCI-H358 cells express KRAS G12C. Description: Phospho-ERK1/2(THR202/TYR204) HTRF assay. Type of assay: cell-based. The note with it: Homo sapiens; NCI-H358, 2 hours incubation; read-out: p-ERK inhibition in NCI-H358 IC50. The method, then:
NCI-H358 cells express KRAS G12C were cultured in RPMI 1640 medium (Gibco) containing 10% fetal bovine serum (Gibco). Cells in culture medium were plated in 96-well plates at a concentration of 40,000 cells/well and allowed to attach overnight. The next day, culture medium was removed and added compounds diluted in assay medium (RPMI 1640, 0.1% EFBS). After 2 hours incubation in a 37° C./5% CO2 cell incubator, the assay medium was removed, then 50 μL of 1× supplemented lysis buffer (Cisbio) was added and the plates were incubated at 25° C. for 45 min with shaking. 10 μL of cell lysates from the 96-well plates were transferred to a 384-well plate (Greiner) containing 2.5 µL/well HTRF® pre-mixed antibodies (Cisbio 64AERPEH).
Incubate 4 hours at 25° C. and then read HTRF signals on Tecan Spark multimode microplate reader. The data were analyzed using a 4-parameter logistic model to calculate IC50 values.

A further assay deals with T1, KRAS G12C (Homo sapiens, UniProt P01116, G12C).
T1 construct: HIS-KRAS (G12C, aa 2-185, Sino biological); purchased Sino biological
T1 sequence (P01116 2-185 isoform P01116-2 G12C): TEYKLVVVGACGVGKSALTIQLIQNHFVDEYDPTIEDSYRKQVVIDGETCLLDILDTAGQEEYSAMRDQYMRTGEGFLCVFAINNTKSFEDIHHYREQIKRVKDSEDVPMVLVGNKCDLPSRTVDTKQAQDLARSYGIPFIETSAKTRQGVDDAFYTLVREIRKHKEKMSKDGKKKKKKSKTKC
Nature of the assay: SOS1 catalyzed nucleotide exchange assay (TR-FRET). Type of assay: biochemical. The note with it: GDP-loaded HIS-KRAS(G12C), 1 hour pre-incubation with compound. The method, then: 1. SOS1 Catalyzed Nucleotide Exchange Assay
HIS-KRAS (G12C, aa 2-185, Sino biological) was diluted to […] EDTA buffer (20 mM HEPES, pH 7.4, 50 mM NaCl, 10 mM EDA, 0.01% (v/v) Tween-20) and incubated for 30 min at 25° C. The EDTA pretreated HIS-KRAS(G12C) was diluted to 12 nM in assay buffer (25 mM HEPES, pH 7.4, 120 mM NaCl, 5 mM MgCl2, 1 mM DTI, 0.01% (v/v) Tween 20, 0.1% (w/v) BSA) containing 120 nM GDP(Sigma) and Mab Anti 6HIS-Tb cryptate Gold(Cisbio) and incubated for 1 hour at 25° C. to prepare GDP-loaded HIS-KRAS(G12C). The GDP-loaded HIS-KRAS(G12C) was pre-incubation with diluted compounds in a 384-well plate (Greiner) for 1 hour, then purified SOS 1ExD (Flag tag, aa 564-1049) and BODIPY™FL GTP (Invitrogen) were added to the assay wells (Final concentration: 3 nM HIS-KRAS(G12C), 2 μM SOS1 ExD, 80 nM BODIPY™FL GTP, 21 ng/mL MAb Anti 6HS-Tb cryptate Gold) and incubated for 4 hours at 25° C. TR-FRET signals were then read on Tecan Spark multimode microplate reader. The parameters were F486: Excitation 340 (35) nm, Emission 486 (10) nm, Lag time 100 μs, Integration time […]; F515: Excitation 340 (35) nm, Emission 515 (10) nm, Lag time […], Integration time 200 s. TR-FRET ratios for each individual wells were calculated by equation: TR-FRET ratio=(Signal F515/Signal F486)*10000. Then the data were analyzed using a 4-parameter logistic model to calculate IC50 values.
Background: In TR-FRET formats the signal depends on donor and acceptor labels being close together.

Molecules are shown by their SMILES.

Take `C=CC(=O)N1CCN(c2nc(OCC3(CN(C)C)CC3)nc3c2CCN(c2c(C)ccc4[nH]ncc24)C3)CC1CC#N` (stereo not drawn) [Compound 3, 2-(1-acryloyl-4-(2-((1-((dimethylamino)methyl)cyclopropyl)methoxy)-7-(5-methyl-1H-indazol-4-yl)-5,6,7,8-tetrahydropyrido[3,4-d]pyrimidin-4-yl)piperazin-2-yl)acetonitrile]: the results for the IC50 (in assay [1]; in assay [2]; on KRAS G12C) were 408 nM, 453 nM and 12.1 nM, respectively.
The like results for `C=CC(=O)N1CCN(c2nc(OCC3(CN4CCCC4)CC3)nc3c2CCN(c2cccc4ccccc24)C3)CC1CC#N` (stereo not drawn) [Compound 4, 2-(1-acryloyl-4-(7-(naphthalen-1-yl)-2-((1-(pyrrolidin-1-ylmethyl)cyclopropyl)methoxy)-5,6,7,8-tetrahydropyrido[3,4-d]pyrimidin-4-yl)piperazin-2-yl)acetonitrile] were, in that order, 93.3 nM, 97.7 nM and 18.9 nM.
The like results for `C=CC(=O)N1CCN(c2nc(OCC3CCCC(N(C)C)C3)nc3c2CCN(c2cccc4cccc(C)c24)C3)CC1CC#N` (stereo not drawn) [Compound 5, 2-(1-acryloyl-4-(2-((3-(dimethylamino)cyclohexyl)methoxy)-7-(8-methylnaphthalen-1-yl)-5,6,7,8-tetrahydropyrido[3,4-d]pyrimidin-4-yl)piperazin-2-yl)acetonitrile] were, in that order, 174 nM, 330 nM and 19.6 nM.
Take `C=CC(=O)N1CCN(c2nc(OCC3CCCC(N(C)C)C3)nc3c2CCN(c2ccccc2C(F)(F)F)C3)CC1CC#N` (stereo not drawn) [Compound 6, 2-(1-acryloyl-4-(2-((3-(dimethylamino)cyclohexyl)methoxy)-7-(2-(trifluoromethyl)phenyl)-5,6,7,8-tetrahydropyrido[3,4-d]pyrimidin-4-yl)piperazin-2-yl)acetonitrile]: the IC50 came to 580 nM in assay [1], 592 nM in assay [2] and 178 nM at KRAS G12C.
Take `C=CC(=O)N1CCN(c2nc(OCC3CC(N(C)C)C3)nc3c2CCN(c2cccc4ccccc24)C3)CC1CC#N` (stereo not drawn) [Compound 8, 2-(1-acryloyl-4-(2-((3-(dimethylamino)cyclobutyl)methoxy)-7-(naphthalen-1-yl)-5,6,7,8-tetrahydropyrido[3,4-d]pyrimidin-4-yl)piperazin-2-yl)acetonitrile]: the IC50 in assay [1] amounted to 3470 nM; in assay [2], 769 nM; on KRAS G12C, 408 nM.
With `C=CC(=O)N1CCN(c2nc(OC3CCCC(N(C)C)C3)nc3c2CCN(c2cccc4ccccc24)C3)CC1CC#N` (stereo not drawn) [Compound 10, 2-(1-acryloyl-4-(2-((3-(dimethylamino)cyclohexyl)oxy)-7-(naphthalen-1-yl)-5,6,7,8-tetrahydropyrido[3,4-d]pyrimidin-4-yl)piperazin-2-yl)acetonitrile], the IC50 was determined as 940 nM in assay [1], 720 nM in assay [2] and 1740 nM on KRAS G12C.
The like results for `C=CC(=O)N1CCN(c2nc(OCC3(N(C)C)CC3)nc3c2CCN(c2cccc4ccccc24)C3)CC1CC#N` (stereo not drawn) [Compound 12, 2-(1-acryloyl-4-(2-((1-(dimethylamino)cyclopropyl)methoxy)-7-(naphthalen-1-yl)-5,6,7,8-tetrahydropyrido[3,4-d]pyrimidin-4-yl)piperazin-2-yl)acetonitrile] were, in that order, 645 nM, 518 nM and 176 nM.
The like results for `C=CC(=O)N1CCN(c2nc(OCC3CCCC3N(C)C)nc3c2CCN(c2cccc4ccccc24)C3)CC1CC#N` (stereo not drawn) [Compound 14, 2-(1-acryloyl-4-(2-((2-(dimethylamino)cyclopentyl)methoxy)-7-(naphthalen-1-yl)-5,6,7,8-tetrahydropyrido[3,4-d]pyrimidin-4-yl)piperazin-2-yl)acetonitrile] were, in that order, 217 nM, 234 nM and 54.1 nM.
For `C=CC(=O)N1CCN(c2nc(OCC3CCCC(N(C)C)C3)nc3c2CCN(c2cccc4ccccc24)C3)CC1CC#N` (stereo not drawn) [Compound 15, 2-(1-acryloyl-4-(2-((3-(dimethylamino)cyclohexyl)methoxy)-7-(naphthalen-1-yl)-5,6,7,8-tetrahydropyrido[3,4-d]pyrimidin-4-yl)piperazin-2-yl)acetonitrile] the same measures were 497 nM, 876 nM and 333 nM.
On to `C=CC(=O)N1CCN(c2nc(OCC3CCC(N(C)C)C3)nc3c2CCN(c2cccc4ccccc24)C3)CC1CC#N` (stereo not drawn) [Compound 17, 2-(1-acryloyl-4-(2-((3-(dimethylamino)cyclopentyl)methoxy)-7-(naphthalen-1-yl)-5,6,7,8-tetrahydropyrido[3,4-d]pyrimidin-4-yl)piperazin-2-yl)acetonitrile], for which the IC50 in assay [1] is 299 nM; in assay [2] it was 312 nM; on KRAS G12C, 83.6 nM.
Consider `C=CC(=O)N1CCN(c2nc(OCC3CCCCC3N(C)C)nc3c2CCN(c2cccc4ccccc24)C3)CC1CC#N` (stereo not drawn) [Compound 18, 2-(1-acryloyl-4-(2-((2-(dimethylamino)cyclohexyl)methoxy)-7-(naphthalen-1-yl)-5,6,7,8-tetrahydropyrido[3,4-d]pyrimidin-4-yl)piperazin-2-yl)acetonitrile], for which the IC50 in assay [1] is 507 nM; in assay [2], 879 nM; on KRAS G12C it was 428 nM.
For `C=CC(=O)N1CCN(c2nc(OCC3(N(C)C)CC3)nc3c2CCN(c2cccc4cccc(C)c24)C3)CC1CC#N` (stereo not drawn) [Compound 20, 2-(1-acryloyl-4-(2-((1-(dimethylamino)cyclopropyl)methoxy)-7-(8-methylnaphthalen-1-yl)-5,6,7,8-tetrahydropyrido[3,4-d]pyrimidin-4-yl)piperazin-2-yl)acetonitrile] the same measures were 102 nM, 127 nM and 19.4 nM.
Consider `C=CC(=O)N1CCN(c2nc(OCC3CCCC3N(C)C)nc3c2CCN(c2cccc(C)c2C)C3)CC1CC#N` (stereo not drawn) [Compound 28, 2-(1-acryloyl-4-(2-((2-(dimethylamino)cyclopentyl)methoxy)-7-(2,3-dimethylphenyl)-5,6,7,8-tetrahydropyrido[3,4-d]pyrimidin-4-yl)piperazin-2-yl)acetonitrile], for which the IC50 in assay [1] was determined as 138 nM; at KRAS G12C, 24.1 nM.
As to `C=CC(=O)N1CCN(c2nc(OCC3CCC(N4CCCC4)C3)nc3c2CCN(c2cccc4ccccc24)C3)CC1CC#N` (stereo not drawn) [Compound 33, 2-(1-acryloyl-4-(7-(26aphthalene-1-yl)-2-((3-(pyrrolidin-1-yl)cyclopentyl)methoxy)-5,6,7,8-tetrahydropyrido[3,4-d]pyrimidin-4-yl)piperazin-2-yl)acetonitrile], the IC50 in assay [1] came to 652 nM; in assay [2], 302 nM.
For the compound `C=CC(=O)N1CCN(c2nc(OCC3(CN4CCOCC4)CC3)nc3c2CCN(c2cccc(Cl)c2C(F)(F)F)C3)CC1CC#N` (stereo not drawn) [Compound 40, 2-(1-acryloyl-4-(7-(3-chloro-2-(trifluoromethyl)phenyl)-2-((1-(morpholinomethyl)cyclopropyl)methoxy)-5,6,7,8-tetrahydropyrido[3,4-d]pyrimidin-4-yl)piperazin-2-yl)acetonitrile], the values for the IC50 (in assay [1]; on KRAS G12C) were 360 nM and 23.8 nM, respectively.
